According to patent publication EP0287830A1, “Alkanoic acid alkyl esters, method for their production and the application of aqueous emulsions of these esters in vaccines” (priority 1987, dated 1988):

Columns and labels:
[1] = Immunostimulatory and adjuvant effect in mouse test model; type: in vivo, Mäuse; details: as component of an oil-in-water emulsion, Mäusetestmodell
[2] = Tolerability of emulsions in guinea pig test model; type: in vivo, Meerschweinchen; details: Meerschweinchentestmodell

Substance: Hexansäurehexylester [Verbindung 2]
- immunstimulatorische und adjuvante Wirkung [1]: immunstimulatorische und adjuvante Wirkung
- Verträglichkeit der Emulsionen [2]: sehr gut verträglich
